# ChEMBL document CHEMBL4033762, “Development of Quinazoline/Pyrimidine-2,4(1H,3H)-diones as Agonists of Cannabinoid Receptor Type 2” (ACS Med Chem Lett, 2017)
# Experiments:
# Cannabinoid receptor 2 [1] = target: T1, Cannabinoid receptor 2 (Homo sapiens, UniProt P34972); assay: Agonist activity at CB2 receptor (unknown origin) expressed in CHO cells co-expressing G-alpha16 incubated for 24 hrs by fluo-4 AM dye based whole-cell calcium mobilization assay relative to CP55940; assay type: functional
# Cannabinoid receptor 1 = Cannabinoid receptor 1 (Homo sapiens, UniProt P21554); assay: Agonist activity at CB1 receptor (unknown origin) expressed in CHO cells co-expressing G-alpha16 incubated for 24 hrs by fluo-4 AM dye based whole-cell calcium mobilization assay
# Cannabinoid receptor 2 [2] = target: T1, Cannabinoid receptor 2; assay: Agonist activity at CB2 receptor (unknown origin) expressed in CHO cells co-expressing G-alpha16 incubated for 24 hrs by fluo-4 AM dye based whole-cell calcium mobilization assay; assay type: functional
# [3] = Ratio of EC50 for agonist activity at CB1 receptor (unknown origin) expressed in CHO cells to EC50 for agonist activity at CB2 receptor (unknown origin) expressed in CHO cells; parameters: species or system Homo sapiens
# [4] = Lipophilicity, log P of the compound incubated at 37 degC for 20 hrs by HPLC based shake flask method; assay type: physicochemical
# Cannabinoid receptor 1, sequence (P21554 whole entry): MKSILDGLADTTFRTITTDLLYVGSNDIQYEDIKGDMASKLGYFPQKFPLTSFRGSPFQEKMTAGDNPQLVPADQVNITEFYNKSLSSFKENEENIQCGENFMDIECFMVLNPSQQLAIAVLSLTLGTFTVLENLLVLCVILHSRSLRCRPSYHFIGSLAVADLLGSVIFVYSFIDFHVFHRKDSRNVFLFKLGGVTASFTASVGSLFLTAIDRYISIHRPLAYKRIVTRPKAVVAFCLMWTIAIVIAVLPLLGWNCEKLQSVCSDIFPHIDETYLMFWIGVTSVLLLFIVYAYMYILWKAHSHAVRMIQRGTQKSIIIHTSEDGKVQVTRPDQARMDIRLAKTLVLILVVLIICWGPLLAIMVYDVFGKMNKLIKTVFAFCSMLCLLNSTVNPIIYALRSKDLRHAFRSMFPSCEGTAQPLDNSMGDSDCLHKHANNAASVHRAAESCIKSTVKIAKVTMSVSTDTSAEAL
# T1 sequence (P34972 whole entry): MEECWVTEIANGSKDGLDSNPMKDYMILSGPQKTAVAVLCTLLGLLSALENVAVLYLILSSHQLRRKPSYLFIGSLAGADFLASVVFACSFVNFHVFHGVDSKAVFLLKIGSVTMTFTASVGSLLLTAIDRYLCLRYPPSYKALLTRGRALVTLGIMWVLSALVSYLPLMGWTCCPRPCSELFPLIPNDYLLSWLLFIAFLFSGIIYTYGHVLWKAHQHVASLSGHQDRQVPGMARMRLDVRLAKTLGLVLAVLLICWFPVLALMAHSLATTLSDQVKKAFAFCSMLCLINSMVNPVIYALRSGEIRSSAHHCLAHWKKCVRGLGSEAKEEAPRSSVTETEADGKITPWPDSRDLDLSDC
Structure (SMILES),Emax (Cannabinoid receptor 2 [1]),EC50 (Cannabinoid receptor 1),EC50 (Cannabinoid receptor 2 [2]),Ratio EC50 [3],logP at 20 h [4]
CCCCCn1c(=O)n(CC(=O)NC(C)(C)C)c(=O)c2c(OC)cccc21,88%,> 10000 nM,1250 nM,>8,
CCCCCn1c(=O)n(CC(=O)NCCCC)c(=O)c2c(C)cccc21,83%,> 10000 nM,468 nM,>21,
CCCCCn1c(=O)n(CC(=O)NCCCC)c(=O)c2c(Cl)cccc21,30%,> 10000 nM,147 nM,>68,
CCCCCn1c(=O)n(CC(=O)NCC(C)C)c(=O)c2ccccc21,81%,> 10000 nM,370 nM,>27,
CCCCCn1c(C)c(-c2ccccc2)c(=O)n(CC(=O)NC(C)(C)C)c1=O,,> 10000 nM,> 10000 nM,,
CCCn1c(=O)n(CC(=O)NC(C)(C)C)c(=O)c2ccccc21,75%,> 10000 nM,1420 nM,>7,
Cc1cccc2c(=O)n(CC(=O)NC(C)(C)C)c(=O)n(CC3CC3)c12,110%,> 10000 nM,309 nM,>32,
CCCCCn1c(C)cc(=O)n(CC(=O)NC(C)(C)C)c1=O,72%,> 10000 nM,722 nM,>13,
CCCCCn1c(C)cc(=O)n(CC(=O)NCCCC)c1=O,,> 10000 nM,> 10000 nM,,
CCCn1c(=O)n(CC(=O)NC(C)(C)C)c(=O)c2c(C)cccc21,113%,> 10000 nM,113 nM,>88,
CCCCCn1c(=O)n(CC(=O)NCCCC)c(=O)c2c(OC)cccc21,,> 10000 nM,> 10000 nM,,
CCCCCCn1c(C)cc(=O)n(CC(=O)NC(C)(C)C)c1=O,65%,> 10000 nM,767 nM,>13,
CCCCCn1c(=O)n(CC(=O)NC(C)(C)C)c(=O)c2cccc(Cl)c21,118%,> 10000 nM,52.7 nM,>190,
CCCCCn1c(=O)n(CC(=O)NC2CCCCC2)c(=O)c2ccccc21,,> 10000 nM,> 10000 nM,,
CCCCn1c(C)cc(=O)n(CC(=O)NC(C)(C)C)c1=O,,> 10000 nM,> 10000 nM,,
CCCCCn1c(C)c(Br)c(=O)n(CC(=O)NC(C)(C)C)c1=O,74%,> 10000 nM,48.7 nM,>205,2.24
CCCCCn1c(C)c(I)c(=O)n(CC(=O)NC(C)(C)C)c1=O,78%,> 10000 nM,178 nM,>56,
CCCCn1c(=O)n(CC(=O)NC(C)(C)C)c(=O)c2c(C)cccc21,98%,> 10000 nM,23.5 nM,>425,
CCCCCn1c(=O)n(CC(=O)NC(C)(C)C)c(=O)c2cccc(C)c21,99%,> 10000 nM,27.7 nM,>361,
Cc1cccc2c1c(=O)n(CC(=O)NC(C)(C)C)c(=O)n2CC1CC1,106%,> 10000 nM,68.3 nM,>146,

Structure (SMILES),Emax (Cannabinoid receptor 2 [1]),EC50 (Cannabinoid receptor 1),EC50 (Cannabinoid receptor 2 [2]),Ratio EC50 [3],logP at 20 h [4]
CCCCn1c(=O)n(CC(=O)NC(C)(C)C)c(=O)c2ccccc21,101%,> 10000 nM,112 nM,>89,
CCCCCn1c(=O)n(CC(=O)NC(C)(C)C)c(=O)c2ccccc21,80%,> 10000 nM,86.5 nM,>116,
CCCCCn1c(=O)n(CC(=O)NC2CCCCC2)c(=O)c2c(C)cccc21,56%,> 10000 nM,395 nM,>25,
CCCCn1c(=O)n(CC(=O)NC(C)(C)C)c(=O)c2cccc(C)c21,102%,> 10000 nM,38.2 nM,>262,
O=C(NCC1CCOCC1)c1cnc(Nc2ccc(Cl)cc2Cl)nc1C(F)(F)F [GW842166X],97%,> 10000 nM,343 nM,>29,4.27
CCCCCn1c(C)c(C2CC2)c(=O)n(CC(=O)NC(C)(C)C)c1=O,71%,> 10000 nM,270 nM,>37,
CCCCCn1c(=O)n(CC(=O)NC(C)(C)C)c(=O)c2c(C)cccc21,77%,> 10000 nM,14 nM,>715,2.56
CCCCCn1c(=O)n(CC(=O)NC(C)(C)C)c(=O)c2cccc(OC)c21,,> 10000 nM,> 10000 nM,,
CCCCN1C(=O)/C(=C/NC2CCCCC2)C(=O)c2cccc(C)c21,,,,,4.35
C=CCCn1c(=O)n(CC(=O)NC(C)(C)C)c(=O)c2cccc(C)c21,90%,> 10000 nM,99.6 nM,>100,
CCCCCn1c(C)c(-c2cccc(C)c2)c(=O)n(CC(=O)NC(C)(C)C)c1=O,,> 10000 nM,> 10000 nM,,
CCCn1c(=O)n(CC(=O)NC(C)(C)C)c(=O)c2cccc(C)c21,121%,> 10000 nM,407 nM,>25,
C=CCCn1c(=O)n(CC(=O)NC(C)(C)C)c(=O)c2c(C)cccc21,103%,> 10000 nM,46.8 nM,>214,
CCCCCn1c(=O)n(CC(=O)NCCCC)c(=O)c2ccccc21,78%,> 10000 nM,78.6 nM,>127,
CCCCCn1c(=O)n(CC(=O)NC2CCCCC2)c(=O)c2c(OC)cccc21,,> 10000 nM,> 10000 nM,,
CCCCCn1c(C)c(Cl)c(=O)n(CC(=O)NC(C)(C)C)c1=O,65%,> 10000 nM,227 nM,>44,
CCCCCn1c(=O)n(CC(=O)NC2CC2)c(=O)c2ccccc21,58%,> 10000 nM,743 nM,>13,
CCCCCn1c(=O)n(CC(=O)NC2CCCCC2)c(=O)c2c(Cl)cccc21,,> 10000 nM,> 10000 nM,,
CCCCCn1c(=O)n(CC(=O)NC(C)C)c(=O)c2ccccc21,65%,> 10000 nM,214 nM,>47,
CCCCCn1c(C)cc(=O)n(CC(=O)NC2CCCCC2)c1=O,,> 10000 nM,> 10000 nM,,
